Consider two compounds from patent US20240325383A1, “Small Molecule Targeting of BRD4 for Treatment of COVID-19” (Board of Regents, The University of Texas System, priority 2023, published 2024).

“Also recorded” adds a separate entry of the source.

The conditions of data set [1]: cited from earlier work.
In data set [2] the test system is rSARS-COV-2mNG. It is filed as cell-based, SARS-COV-2.
For data set [3], the system named is CXCL10 expression. It is filed as cell-based, human.

On to `CCC(=O)O[C@]1(C(=O)SCF)[C@H](C)C[C@H]2[C@@H]3C[C@H](F)C4=CC(=O)C=C[C@]4(C)[C@@]3(F)[C@@H](O)C[C@@]21C` [Fluticasone propionate], for which the “solubility in 95% ethanol” value in data set [1] (95% ethanol) is given as “slightly soluble”. Besides, the “solubility in dimethyl sulfoxide” value in data set [1] (dimethyl sulfoxide) is reported as “freely soluble”. In data set [1] (dimethylformamide), the solubility in dimethylformamide entry is recorded as “freely soluble”. In data set [1] (methanol), the solubility in methanol entry is given as “slightly soluble”. Besides, the solubility in water result in data set [1] (water) is recorded as “practically insoluble”.
As for `COc1cc(OC)c2c(=O)cc(-c3cc(C)c(OCCCN4CCN(C)CC4)c(C)c3)oc2c1` [ZL0969], the “virus titer (FFA)” value in data set [2] is “significantly reduce virus titer”. The CXCL10 expression entry in data set [3] is listed as “reduces expression levels of CXCL10; also recorded: reduce CXCL10 expression”.
